Data on three compounds can be found in article PMC6271335, “Anti-Cholinesterase Activity of Lycopodium Alkaloids from Vietnamese Huperzia squarrosa (Forst.) Trevis” (Molecules, 2014).

The test addresses AChE (acetylcholinesterase) (Electrophorus electricus, UniProt O42275). The test can be described thus: Ellman spectrophotometric assay. Format: biochemical. (In general: DTNB colorimetry detects thiols as they appear.)

AChE (acetylcholinesterase), sequence (O42275 24-633): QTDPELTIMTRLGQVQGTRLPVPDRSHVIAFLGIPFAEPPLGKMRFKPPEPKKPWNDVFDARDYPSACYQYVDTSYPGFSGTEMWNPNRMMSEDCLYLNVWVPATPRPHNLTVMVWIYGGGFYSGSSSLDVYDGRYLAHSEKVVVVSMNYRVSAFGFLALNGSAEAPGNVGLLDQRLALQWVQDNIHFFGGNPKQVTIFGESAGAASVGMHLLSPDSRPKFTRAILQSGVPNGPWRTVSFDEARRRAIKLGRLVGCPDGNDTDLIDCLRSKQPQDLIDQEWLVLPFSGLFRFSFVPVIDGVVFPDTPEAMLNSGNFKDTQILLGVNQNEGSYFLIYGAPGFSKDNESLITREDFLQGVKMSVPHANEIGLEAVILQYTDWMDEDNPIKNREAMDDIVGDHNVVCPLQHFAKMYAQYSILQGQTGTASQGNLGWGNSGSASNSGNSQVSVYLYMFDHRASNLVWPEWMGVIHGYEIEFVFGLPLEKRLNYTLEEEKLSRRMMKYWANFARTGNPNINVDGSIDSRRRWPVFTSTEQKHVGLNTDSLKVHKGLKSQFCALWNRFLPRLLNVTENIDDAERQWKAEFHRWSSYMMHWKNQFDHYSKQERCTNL

Turning to `CC(=O)OC1C(C)CC(=O)N2CCCC3=C(CCC2)C1CC3=O` (stereo not drawn) [compound 1, lycosquarosine A], half-maximal inhibition (IC50) was put at 170 µM.
As to acetylaposerratinine [compound 2], the IC50 – broadly, the point on the concentration scale where inhibition reaches its midpoint – is given as 15.2 µg/mL.
Take `COc1ccc2cc3[n+](cc2c1OC)CCc1cc2c(cc1-3)OCO2` [Berberine, reference compound]: the IC50 was 0.268 µM.
